Here are results for 31 compounds from patent US7851474B2, “Dipiperazinyl ketones and related analogues” (Neurogen Corporation, priority 2005, dated 2010).

One may read the Ki as a measure of affinity in units of concentration, obtained from inhibition or displacement.

Where two headings read alike, the source gives them in different places.

The assay deals with T1, chimeric human H3 receptor (Homo sapiens, UniProt Q9Y5N1, E19D).
T1 construct: made in house; host or cells: Sf9 insect cells (baculovirus infection); P2 membrane preparation
T1 sequence (Q9Y5N1 with tags, fused parts or gaps E19D): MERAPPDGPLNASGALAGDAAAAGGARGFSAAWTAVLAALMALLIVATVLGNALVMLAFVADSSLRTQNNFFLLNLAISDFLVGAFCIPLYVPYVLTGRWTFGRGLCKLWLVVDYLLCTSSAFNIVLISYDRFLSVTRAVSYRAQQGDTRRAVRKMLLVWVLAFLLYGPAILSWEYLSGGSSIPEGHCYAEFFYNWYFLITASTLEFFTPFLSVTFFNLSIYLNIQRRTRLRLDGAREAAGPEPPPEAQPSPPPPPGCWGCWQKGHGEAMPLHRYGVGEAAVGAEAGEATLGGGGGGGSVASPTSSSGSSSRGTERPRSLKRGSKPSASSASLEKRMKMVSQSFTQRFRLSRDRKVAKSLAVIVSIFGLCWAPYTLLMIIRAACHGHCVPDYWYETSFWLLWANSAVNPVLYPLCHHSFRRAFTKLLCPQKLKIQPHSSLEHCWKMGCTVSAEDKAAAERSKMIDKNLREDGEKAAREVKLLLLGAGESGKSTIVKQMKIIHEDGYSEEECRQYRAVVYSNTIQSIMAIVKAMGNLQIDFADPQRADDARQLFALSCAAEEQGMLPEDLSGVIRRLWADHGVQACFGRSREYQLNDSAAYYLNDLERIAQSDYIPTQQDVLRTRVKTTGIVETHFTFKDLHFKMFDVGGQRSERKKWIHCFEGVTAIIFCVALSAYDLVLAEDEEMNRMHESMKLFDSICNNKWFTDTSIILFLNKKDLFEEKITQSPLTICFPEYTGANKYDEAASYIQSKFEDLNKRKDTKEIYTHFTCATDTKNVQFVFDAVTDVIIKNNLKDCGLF
As to the kind of experiment: Chimeric human H3 receptor GTP binding assay (agonist-stimulated GTP-gamma35S binding, Example 7). In kind it is biochemical. An excerpt:
This Example illustrates a representative assay for evaluating agonist-stimulated GTP-gamma^35S binding (“GTP binding”) activity. […] This agonist-stimulated GTP binding activity can also be used to detect partial agonism mediated by antagonist compounds. A compound analyzed in this assay is referred to herein as a “test compound.”
Four independent baculoviral stocks (one directing the expression of the chimeric human H3 receptor and three directing the expression of each of the three subunits of a heterotrimeric G-protein) are used to infect a culture of Sf9 cells as described above. P2 membranes are prepared as described above, and agonist-stimulated GTP binding on the P2 membranes is assessed using histamine (Sigma Chemical Co., St. Louis, Mo.) as agonist in order to ascertain that the receptor/G-protein-alpha-beta-gamma combination(s) yield a functional response as measured by GTP binding. P2 membranes are resuspended by Dounce homogenization (tight pestle) in GTP binding assay buffer (50 mM Tris pH 7.4, 120 mM NaCl, 5 mM MgCl2, 2 mM EGTA, 1 mg/ml BSA, 0.2 mg/ml bacitracin, 0.02 mg/ml aprotinin, 0.01 mg/ml saponin, 10 μM GDP) and added to assay tubes at a concentration of 35 μg protein/reaction tube. […] In competition experiments, non-radiolabeled test compounds are added to separate reactions at concentrations ranging from 10^−10 M to 10^−6 M along with 1 μM histamine to yield a final volume of 0.20 ml.
Neutral antagonists are antagonists that are substantially free of inherent agonist activity, and include those test compounds that reduce the histamine-stimulated GTP binding activity towards, but not below, baseline levels. In contrast, in the absence of added histamine, inverse agonists reduce the GTP binding activity of the receptor-containing membranes below baseline.
After a 60-min incubation at room temperature, reactions are terminated by vacuum filtration over WHATMAN GF/C filters (pre-soaked in wash buffer, 0.1% BSA) followed by washing with ice-cold wash buffer (50 mM Tris pH 7.4, 120 mM NaCl). The amount of receptor-bound (and thereby membrane-bound) GTP-gamma^35S is determined by measuring the filter-bound radioactivity, preferably by liquid scintillation spectrometry of the washed filters. […] Data is expressed as percent above basal (baseline). The results of GTP binding experiments are analyzed using SIGMAPLOT software (SPSS Inc., Chicago, Ill.).
IC50 values are calculated by non-linear regression analysis of dose-response curves using Kaleidograph (Synergy Software, Reading, Pa.).
On the technique in general: GTPγS resists hydrolysis and so accumulates on activated G proteins.

Where [1] appears, read: assay of Example 7, "*" in Ki of Table II, read-out: Ki.
Setting [2] is: Table II, assay of Example 7, "*" in Ki, read-out: Ki.
[3] abbreviates: Table II "Ki", symbol "*": Ki in the assay of Example 7, read-out: Ki.
Setting [4] is: assay of Example 7, symbol * in column headed Ki of Table II, read-out: Ki.
Where [5] appears, read: "*" in Ki of Table II, assay of Example 7, read-out: Ki.

Consider `CCC(CC)CNC(=O)c1ccc(N2CCN(CC(=O)N3CCN(C4CCC4)CC3)CC2)nc1` [Compound 1188, 6-{4-[2-(4-cyclobutylpiperazin-1-yl)-2-oxoethyl]piperazin-1-yl}-N-(2-ethylbutyl)nicotinamide], for which, under setting [1], the Ki is below 1000 nM. Take `CN(C(=O)c1ccc(N2CCN(CC(=O)N3CCN(C4CCC4)CC3)CC2)cc1)C1CCCCC1` [Compound 1128, 4-{4-[2-(4-cyclobutylpiperazin-1-yl)-2-oxoethyl]piperazin-1-yl}-N-cyclohexyl-N-methylbenzamide]: the Ki under setting [2] was below 1000 nM. On to `O=C(NC1CC1)c1ccc(N2CCN(CC(=O)N3CCN(C4CCC4)CC3)CC2)cc1` [Compound 1138, 4-{4-[2-(4-cyclobutylpiperazin-1-yl)-2-oxoethyl]piperazin-1-yl}-N-cyclopropylbenzamide], for which the Ki under setting [1] is below 1000 nM. On the same count and under the same terms, the value for `CC(C)(C)c1ccc(C(=O)NC2CCN(CC(=O)N3CCN(C4CCC4)CC3)C2)cc1` (stereo not shown) [Compound 1152, 4-tert-butyl-N-{1-[2-(4-cyclobutylpiperazin-1-yl)-2-oxoethyl]pyrrolidin-3-yl}benzamide] was below 1000 nM. Consider `COc1cccc(N2CCN(CC(=O)N3CCN(C4CCCCC4)CC3)CC2)c1` [Compound 820, 1-cyclohexyl-4-{[4-(3-methoxyphenyl)piperazin-1-yl]acetyl}piperazine], for which the Ki under setting [3] is below 1000 nM. For the compound `CCCN(CC1CC1)C1CCN(CC(=O)N2CCN(C3CCCCC3)CC2)CC1` [Compound 440, 1-[2-(4-cyclohexylpiperazin-1-yl)-2-oxoethyl]-N-(cyclopropylmethyl)-N-propylpiperidin-4-amine], the Ki under setting [4] is below 1000 nM. In the case of `CCC(C)N1CCN(C(=O)CN2CCN(c3cccc(OC)c3)CC2)CC1` (stereo not shown) [Compound 875, 1-sec-butyl-4-{[4-(3-methoxyphenyl)piperazin-1-yl]acetyl}piperazine], the Ki under setting [3] is below 1000 nM.

As to `CC(C)N1C(=O)c2ccccc2C12CCN(CC(=O)N1CCN(C3CCC3)CC1)CC2` [Compound 426, 1-[2-(4-cyclobutylpiperazin-1-yl)-2-oxoethyl]-2-isopropylspiro[isoindole-1,4′-piperidin]-3(2H)-one], under setting [4], the Ki was below 1000 nM. Consider `CN1C(=O)C2(CCN(CC(=O)N3CCN(C4CCC4)CC3)CC2)c2ccccc21` [Compound 423], for which the inhibition constant (Ki) under setting [4] is below 1000 nM. Take `Cc1cccc(N2CCN(CC(=O)N3CCN(C4CCC4)CC3)CC2)c1` [Compound 763, 1-cyclobutyl-4-{[4-(3-methylphenyl)piperazin-1-yl]acetyl}piperazine]: the Ki (Table II, "*" in Ki, assay of Example 7, read-out: Ki) is below 1000 nM. With `CC(C)(C)C(=O)c1ccc(N2CCN(CC(=O)N3CCN(C4CCC4)CC3)CC2)cc1` [Compound 314, 1-(4-{4-[2-(4-cyclobutylpiperazin-1-yl)-2-oxoethyl]piperazin-1-yl}phenyl)-2,2-dimethylpropan-1-one], under setting [4], the Ki was below 1000 nM. On to `CCN(CC)C(=O)c1ccc(N2CCN(CC(=O)N3CCN(C4CCC4)CC3)CC2)cc1` [Compound 1125, 4-{4-[2-(4-cyclobutylpiperazin-1-yl)-2-oxoethyl]piperazin-1-yl}-N,N-diethylbenzamide], for which the Ki under setting [2] is below 1000 nM.

In the case of `O=C(CN1CCC(N2CCCCCC2)CC1)N1CCN(C2CCC2)CC1` [Compound 479, 1-{1-[2-(4-cyclobutylpiperazin-1-yl)-2-oxoethyl]piperidin-4-yl}azepane], the Ki under setting [5] is below 1000 nM. For the compound `O=C(CN1CCN(c2ccc(-c3cccc(Cl)c3)cc2)CC1)N1CCN(C2CCC2)CC1` [Compound 300, 1-(3′-chlorobiphenyl-4-yl)-4-[2-(4-cyclobutylpiperazin-1-yl)-2-oxoethyl]piperazine], under setting [4], the Ki is below 1000 nM.

`O=C(CN1CCN(c2cnc(-c3cc(C(F)(F)F)cc(C(F)(F)F)c3)cn2)CC1)N1CCN(C2CCC2)CC1` [Compound 913, 2-[3,5-bis(trifluoromethyl)phenyl]-5-{4-[2-(4-cyclobutylpiperazin-1-yl)-2-oxoethyl]piperazin-1-yl}pyrazine]: under setting [3], the Ki is below 1000 nM. Take `CCOc1cccc(-c2ccc(N3CCN(CC(=O)N4CCN(C5CCC5)CC4)CC3)nn2)c1` [Compound 1022, 3-{4-[2-(4-cyclobutylpiperazin-1-yl)-2-oxoethyl]piperazin-1-yl}-6-(3-ethoxyphenyl)pyridazine]: under setting [2], the Ki is below 1000 nM. In the case of `CC(C)(C)c1ccc(-c2cnc(N3CCN(CC(=O)N4CCN(C5CCC5)CC4)CC3)cn2)cc1` [Compound 910, 2-(4-tert-butylphenyl)-5-{4-[2-(4-cyclobutylpiperazin-1-yl)-2-oxoethyl]piperazin-1-yl}pyrazine], the Ki under setting [3] is below 1000 nM. Take `CC(C)N1CCN(C(=O)CN2CCN(c3cccc(F)c3)CC2)CC1` [Compound 303, 1-(3-fluorophenyl)-4-[2-(4-isopropylpiperazin-1-yl)-2-oxoethyl]piperazine]: the Ki was below 1000 nM.

`CCc1cccc(-c2cnc(N3CCN(CC(=O)N4CCN(C5CCC5)CC4)CC3)cn2)c1` [Compound 932, 2-{4-[2-(4-cyclobutylpiperazin-1-yl)-2-oxoethyl]piperazin-1-yl}-5-(3-ethylphenyl)pyrazine]: the Ki under setting [3] was below 1000 nM. The same measure, in the same setting: the value for `O=C(CN1CCN(c2ccc([N+](=O)[O-])cc2)CC1)N1CCN(C2CCC2)CC1` [Compound 786, 1-cyclobutyl-4-{[4-(4-nitrophenyl)piperazin-1-yl]acetyl}piperazine] was below 1000 nM. In the case of `COc1cccc(-c2ccc(N3CCN(CC(=O)N4CCN(C5CCC5)CC4)CC3)nn2)c1` [Compound 1020, 3-{4-[2-(4-cyclobutylpiperazin-1-yl)-2-oxoethyl]piperazin-1-yl}-6-(3-methoxyphenyl) pyridazine], the Ki under setting [2] was below 1000 nM. On to `CCC(C)NC(=O)c1ccc(N2CCN(CC(=O)N3CCN(C4CCC4)CC3)CC2)nc1` (stereo not shown) [Compound 1205, N-(sec-butyl)-6-{4-[2-(4-cyclobutylpiperazin-1-yl)-2-oxoethyl]piperazin-1-yl}nicotinamide], for which the inhibition constant (Ki) under setting [1] was below 1000 nM. On to `O=C(CN1CCN(c2cnc(-c3ccc4c(c3)OCCO4)cn2)CC1)N1CCN(C2CCC2)CC1` [Compound 947, 2-{4-[2-(4-cyclobutylpiperazin-1-yl)-2-oxoethyl]piperazin-1-yl}-5-(2,3-dihydro-1,4-benzodioxin-6-yl)pyrazine], for which the Ki under setting [2] was below 1000 nM. For `O=C(Cc1ccccc1Oc1ccccc1)N1CCN(CC(=O)N2CCN(C3CCC3)CC2)CC1` [Compound 541, 1-cyclobutyl-4-({4-[(2-phenoxyphenyl)acetyl]piperazin-1-yl}acetyl)piperazine], the Ki under setting [5] was below 1000 nM. On to `O=C(NCC(F)(F)F)c1ccc(N2CCN(CC(=O)N3CCN(C4CCC4)CC3)CC2)cc1` [Compound 1137, 4-{4-[2-(4-cyclobutylpiperazin-1-yl)-2-oxoethyl]piperazin-1-yl}-N-(2,2,2-trifluoroethyl)benzamide], for which the Ki under setting [2] was below 1000 nM. As to `CCC(CC)CNC(=O)c1ccc(N2CCN(CC(=O)N3CCN(C4CCC4)CC3)CC2)cc1` [Compound 1146, 4-{4-[2-(4-cyclobutylpiperazin-1-yl)-2-oxoethyl]piperazin-1-yl}-N-(2-ethylbutyl)benzamide], the Ki under setting [1] was below 1000 nM.

Consider `COc1ccc(C(C)C)cc1-c1ccc(N2CCN(CC(=O)N3CCN(C4CCC4)CC3)CC2)nn1` [Compound 1040, 3-{4-[2-(4-cyclobutylpiperazin-1-yl)-2-oxoethyl]piperazin-1-yl}-6-(5-isopropyl-2-methoxyphenyl) pyridazine], for which the Ki under setting [2] is below 1000 nM. Take `O=C(CN1CCN(c2ccc(Cl)cc2)CC1)N1CCN(C2CCC2)CC1` [Compound 356]: the Ki under setting [4] was below 1000 nM. On to `CC(C)CC(=O)NC1CCN(CC(=O)N2CCN(C3CCC3)CC2)C1` (stereo not shown) [Compound 1246, N-{1-[2-(4-cyclobutylpiperazin-1-yl)-2-oxoethyl]pyrrolidin-3-yl}-3-methylbutanamide], for which, under setting [1], the Ki is below 1000 nM. For the compound `Cc1cc(N2CCN(CC(=O)N3CCN(C(C)C)CC3)CC2)ccc1Cl` [Compound 353, 1-(4-chloro-3-methylphenyl)-4-[2-(4-isopropylpiperazin-1-yl)-2-oxoethyl]piperazine], the Ki under setting [4] was below 1000 nM. As to `COc1ccc(N2CCN(CC(=O)N3CCN(C4CCC4)CC3)CC2C)cc1` (stereo not shown) [Compound 1103, 4-[2-(4-cyclobutylpiperazin-1-yl)-2-oxoethyl]-1-(4-methoxyphenyl)-2-methylpiperazine], under setting [2], the Ki was below 1000 nM.
